Test systems include DU-145; NCI/ADR-RES; MDA-MB-435; DLD-1; DMS-273; M19-MEL; DMS-114; XF498; RXF 631.
Assay in all cases: NCI-60 cell line screen, 48 h

Results on 30 molecules are retold here after ChEMBL document CHEMBL1201862, “PubChem BioAssay data set” (2004).

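96-well plates; 48 h exposure; 5 concentrations. Endpoints by linear interpolation between flanking doses. Not reached: highest tested concentration assigned. GI50 = concentration required for 50% inhibition of growth.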 Activity calls are given as the source filed them. Rule as the data show it: active = GI50 up to about 1.1 µM and inactive = higher. Square brackets hold non-standard residues; d marks the D form. Peptide text beside a SMILES is read from it. * marks the point of attachment. Boc = CC(C)(C)OC(=O)*; Lac = C[CH](O)C(=O)O; OBn = c1ccc(CO*)cc1 Where only a bound is given, the exact number is not on record here.

For the molecule `COC(=O)C(F)C(Br)C(=O)OC` (stereo not drawn), the GI50 with DU-145 was 9.55 µM (inactive); with NCI/ADR-RES it was 2.94 µM (inactive); with MDA-MB-435 it was 8.38 µM (inactive).

For the molecule `CCOC(=O)C1CCn2c(nc3c2c(=O)n(C)c(=O)n3C)S1` (stereo not drawn), the GI50 with DLD-1 and with DMS-273 was > 100 µM (inactive) in each case.

Turning to `CCOc1ccc2c(C)cc(=O)oc2c1`, the GI50 in the assay on DU-145, in the assay with NCI/ADR-RES and with MDA-MB-435 was > 100 µM (inactive) throughout.

Consider `CC1CC(C[N+](=O)[O-])CC2(C1)OCCO2` (stereo not drawn), for which the GI50 in the assay on M19-MEL, with DLD-1, in the assay with DMS-273 and in the assay on DMS-114 was > 100 µM (inactive) in each case.

Turning to `Cc1cc(=O)oc2c1cc1ccc3cccc4ccc2c1c34`, the GI50 in the assay with M19-MEL and in the assay on DLD-1 was > 100 µM (inactive) in each case.

On to `O=C1CSC(/C=C/c2ccccc2)N1c1nc2cc3sc(N4C(=O)CSC4/C=C/c4ccccc4)nc3cc2s1` (stereo not drawn), for which the GI50 is > 48.9 µM (inactive) with DU-145, > 87.1 µM (inactive) in the assay on NCI/ADR-RES and > 65.6 µM (inactive) with MDA-MB-435.

As to `O=C(OCCOC(=O)c1ccc2c(c1)C1(SCCS1)c1ccccc1-2)c1ccc2c(c1)C1(SCCS1)c1ccccc1-2`, the GI50 in the assay on M19-MEL, in the assay on DLD-1 and with DMS-114 was > 100 µM (inactive) throughout.

For the molecule `CC(OC(=O)C(Cc1ccccc1)NC(=O)C(Cc1ccccc1)NC(=O)OC(C)(C)C)C(=O)OCc1ccccc1` (stereo not drawn) (Boc-Phe-Phe-[Lac]-OBn; configuration not given here), the GI50 in the assay on DU-145, in the assay with NCI/ADR-RES and with MDA-MB-435 was > 100 µM (inactive) each time.

On to `Nc1ccccc1C(=O)N/N=C1\C(=O)Nc2ccccc21`, for which the GI50 with DU-145, in the assay on NCI/ADR-RES and in the assay with MDA-MB-435 was > 100 µM (inactive) throughout.

Take `COc1cc(/C=C2\N=C(c3ccccc3)N(C3Nc4cc5c(cc4S3)NC(N3C(=O)/C(=C/c4cc(OC)c(OC)c(OC)c4)N=C3c3ccccc3)S5)C2=O)cc(OC)c1OC` (stereo not drawn): the GI50 in the assay with DU-145 is 94.8 µM (inactive); in the assay on NCI/ADR-RES it was 38.5 µM (inactive); with MDA-MB-435, > 100 µM (inactive).

As for `CC1CC2=C(S(=O)(=O)c3ccccc3)CC(S(=O)(=O)c3ccccc3)(S(=O)(=O)c3ccccc3)CC21` (stereo not drawn), the GI50 was > 100 µM (inactive) in the assay with XF498, > 100 µM (inactive) in the assay on DLD-1, > 100 µM (inactive) with DMS-273 and 9.64 µM (inactive) with DMS-114.

For `CC[C@H]1CC(=O)c2c(cc3c(c2O)C(=O)c2ccccc2C3=O)[C@@]1(C#N)C(=O)OC(C)(C)C`, the GI50 in the assay on XF498 was 2.74 µM (inactive); in the assay with M19-MEL, 3.7 µM (inactive); in the assay on DLD-1 it was 2.33 µM (inactive); in the assay with DMS-273 it was 2.42 µM (inactive); in the assay with DMS-114 it was 3.21 µM (inactive).

Turning to `O=C(NN1C(=O)CSC1c1cccc(F)c1)c1ccncc1` (stereo not drawn), the GI50 in the assay with RXF 631, in the assay with XF498, in the assay with DMS-273 and in the assay on DMS-114 was > 100 µM (inactive) each time.

`Cc1ccc(C2CC(c3cccc([N+](=O)[O-])c3)=Nc3ccccc3S2)cc1` (stereo not drawn): the GI50 in the assay on RXF 631 was > 93.8 µM (inactive); with XF498, 21.4 µM (inactive); in the assay on M19-MEL, 40.4 µM (inactive); in the assay with DLD-1, 20 µM (inactive); with DMS-273, 33.7 µM (inactive); with DMS-114, 22.5 µM (inactive).

For the molecule `O=C1Nc2ccc(Cl)cc2/C1=C\c1c(Cl)nc2sccn12`, the values for the GI50 with DU-145, in the assay on NCI/ADR-RES and with MDA-MB-435 were 73.5 µM (inactive), 3.1 µM (inactive) and 0.787 µM (active), respectively.

`COC1=CC(=O)C2(C=C1OC)OC[C@H]1Oc3c(ccc4c3C=CC(C)(C)O4)C(=O)[C@H]12` (stereo partly drawn): the GI50 in the assay with RXF 631 is > 100 µM (inactive); in the assay with XF498, 40.9 µM (inactive); in the assay with M19-MEL it was 40.8 µM (inactive); in the assay with DLD-1, 43.6 µM (inactive); in the assay on DMS-273 it was 35.1 µM (inactive); in the assay with DMS-114 it was 25.2 µM (inactive).

Take `OC1CCOc2ccccc21` (stereo not drawn): the GI50 in the assay with XF498, in the assay on M19-MEL, with DLD-1, in the assay on DMS-273 and in the assay with DMS-114 was > 100 µM (inactive) each time.

Take `Cc1ccc(OCC2OC(n3cnc4c(Cl)nc(N)nc43)CC2Oc2ccc(C)cc2)cc1` (stereo not drawn): the GI50 in the assay on DU-145 is 40.8 µM (inactive); in the assay with NCI/ADR-RES, 34.4 µM (inactive); with MDA-MB-435, > 57.1 µM (inactive).

In the case of `Cc1ccc(/N=N/C(C(=O)c2ccccc2)C(=O)c2ccccc2)cc1`, the GI50 with RXF 631 was 35.8 µM (inactive); with XF498 it was 20.1 µM (inactive); in the assay on M19-MEL, 16 µM (inactive); in the assay on DLD-1, 21.9 µM (inactive); in the assay with DMS-273, 19.2 µM (inactive); with DMS-114, 20.1 µM (inactive).

`COc1ccccc1N1C(=O)/C(=C\c2cc(OC)c(OC)c(OC)c2)SC1c1ccccc1` (stereo not drawn): the GI50 was > 100 µM (inactive) with DU-145, 43 µM (inactive) in the assay on NCI/ADR-RES and 14.9 µM (inactive) with MDA-MB-435.

As for `O=C1CCC(NC(=O)Cc2ccc(O)cc2)C(=O)N1` (stereo not drawn), the GI50 in the assay on RXF 631, in the assay with XF498, with M19-MEL, in the assay with DMS-273 and in the assay with DMS-114 was > 2500 µM (inactive) in each case.

For the molecule `CCC(=O)NC(Nc1cccc(F)c1)(C(F)(F)F)C(F)(F)F`, the GI50 with DU-145, with NCI/ADR-RES and with MDA-MB-435 was > 100 µM (inactive) in each case.

For the molecule `CN(C)CCNC(=O)c1cc2ccccc2c2nc3ccccc3nc12`, the GI50 was 1.01 µM (active) in the assay on M19-MEL, 0.447 µM (active) in the assay on DLD-1, 0.448 µM (active) in the assay with DMS-273 and 0.83 µM (active) in the assay with DMS-114.

For the molecule `COc1ccc(C(=O)NNC(=O)c2nsc3ccccc23)cc1`, the GI50 with M19-MEL was > 100 µM (inactive); with DMS-273, > 100 µM (inactive); in the assay on DMS-114, 63 µM (inactive).

With `Cc1n[nH]c(CC#N)n1`, the GI50 in the assay with DU-145, with NCI/ADR-RES and with MDA-MB-435 was > 100 µM (inactive) throughout.

Turning to `COc1ccccc1C(=O)c1c(NCc2ccccc2)c(=O)c1=O`, the GI50 with DU-145, in the assay on NCI/ADR-RES and in the assay on MDA-MB-435 was > 100 µM (inactive) each time.

As to `CC/C=C\C/C=C\C/C=C\CCCCCCCC(=O)OC` [METHYL LINOLENATE], the GI50 in the assay on XF498, in the assay with M19-MEL, with DLD-1, in the assay on NCI/ADR-RES, in the assay on DMS-273 and in the assay with DMS-114 was > 100 µM (inactive) in each case.

With `O=C1NC(O)CCN1C1OC(CO)C(O)C1O` (stereo not drawn), the GI50 was > 250 µM (inactive) in the assay with XF498; > 213 µM (inactive) in the assay with M19-MEL; > 250 µM (inactive) in the assay on DLD-1; > 250 µM (inactive) with NCI/ADR-RES; > 250 µM (inactive) with DMS-273; > 250 µM (inactive) in the assay with DMS-114.

Consider `COP(=O)(OC)C(N)Cc1c[nH]c2ccccc12` (stereo not drawn), for which the GI50 with DU-145, with NCI/ADR-RES and with MDA-MB-435 was > 100 µM (inactive) throughout.

As for `CC(C)NC(=O)OCc1c(COC(=O)NC(C)C)c(-c2ccc[n+](COC(=O)C3CCCCC3)c2)n2c1CCC2`, the GI50 in the assay on DU-145 was 28.4 µM (inactive); with NCI/ADR-RES, 60 µM (inactive); in the assay with MDA-MB-435, > 100 µM (inactive).
